Experimental data from ChEMBL document CHEMBL1134887, “Muraymycins, novel peptidoglycan biosynthesis inhibitors: semisynthesis and SAR of their derivatives” (Bioorg Med Chem Lett, 2002).
Activity calls are given as the source filed them. The rule behind the calls is not given here.

How the values were obtained:
Format in all cases: functional
[1] = tested on: Staphylococcus epidermidis; experiment: Inhibitory activity against MraY/MurG at a concentration of 6.25 ug/mL; No activity
[2] = tested on: Staphylococcus epidermidis; experiment: Inhibitory activity against MraY/MurG at a concentration of 25 ug/mL; No activity
[3] = tested on: Staphylococcus epidermidis; experiment: Inhibitory activity against MraY/MurG at a concentration of 50 ug/mL; No activity
[4] = tested on: Staphylococcus epidermidis; experiment: Compound was tested for reduction in the production of lipid II relative to the control(judged by intensity) on the film, inhibition of either MraY or MurG at a dose of 100 ug/mL
[5] = tested on: Staphylococcus epidermidis; experiment: Inhibitory activity against MraY/MurG at a concentration of 100 ug/mL; No activity
[6] = tested on: Staphylococcus epidermidis; experiment: Compound was tested for reduction in the production of lipid II relative to the control(judged by intensity) on the film, inhibition of either MraY or MurG at a dose of 25 ug/mL
[7] = tested on: Staphylococcus epidermidis; experiment: Compound was tested for reduction in the production of lipid II relative to the control(judged by intensity) on the film, inhibition of either MraY or MurG at a dose of 50 ug/mL
[8] = tested on: Staphylococcus epidermidis; experiment: Compound was tested for reduction in the production of lipid II relative to the control(judged by intensity) on the film, inhibition of either MraY or MurG at a dose of 6.25 ug/mL
[9] = tested on: Staphylococcus epidermidis; experiment: Inhibitory activity against MraY/MurG at a concentration of 100 ug/mL; Not activity
[10] = tested on: Staphylococcus epidermidis; experiment: Inhibitory activity against MraY/MurG at a concentration of 6.25 ug/mL No activity
[11] = tested on: Staphylococcus epidermidis; experiment: Inhibitory activity against MraY/MurG at a concentration of 6.25 ug/mL; Not activity

SMILES	Inhibitory activity [1]	Inhibitory activity [2]	Inhibitory activity [3]	Inhibitory activity [4]	Inhibitory activity [5]	Inhibitory activity [6]	Inhibitory activity [7]	Inhibitory activity [8]	Inhibitory activity [9]	Inhibitory activity [10]	Inhibitory activity [11]
CCCCCN(CCCNC(=O)[C@@H](NC(=O)[C@@H](NC(=O)N[C@H](C(=O)O)C(C)C)[C@@H]1CCN=C(N)N1)[C@@H](O)C(C)C)[C@H](C(=O)O)C(O[C@@H]1O[C@H](CN)[C@@H](O)[C@H]1OC)[C@H]1O[C@@H](n2ccc(=O)[nH]c2=O)[C@H](O)[C@@H]1O (some centres undefined)	inactive	inactive	Active	Active							
CO[C@H]1[C@H](OC([C@H]2O[C@@H](n3ccc(=O)[nH]c3=O)[C@H](O)[C@@H]2O)[C@@H](C(=O)O)N(CCCNC(=O)[C@@H](NC(=O)[C@@H](NC(=O)N[C@H](C(=O)O)C(C)C)[C@@H]2CCN=C(N)N2)[C@@H](O)C(C)C)Cc2ccc(-c3ccccc3)cc2)O[C@H](CNCc2ccc(-c3ccccc3)cc2)[C@H]1O (some centres undefined)	Active	Active	Active		Active						
CCCCCCCCCCCCN1C(=O)C(C(O[C@@H]2O[C@H](CN)[C@@H](O)[C@H]2OC)[C@H]2O[C@@H](n3ccc(=O)[nH]c3=O)[C@H](O)[C@@H]2O)N(CCCNC(=O)[C@@H](NC(=O)[C@@H](NC(=O)N[C@H](C(=O)O)C(C)C)[C@@H]2CCN=C(N)N2)[C@@H](O)C(C)C)C1=O (some centres undefined)				Active		Active	Active	Active			
CCCCCCCCCCCCNC(=O)NC[C@H]1O[C@@H](OC(C2C(=O)N(CCCCCCCCCCCC)C(=O)N2CCCNC(=O)[C@@H](NC(=O)[C@@H](NC(=O)N[C@H](C(=O)O)C(C)C)[C@@H]2CCN=C(N)N2)[C@@H](O)C(C)C)[C@H]2O[C@@H](n3ccc(=O)[nH]c3=O)[C@H](O)[C@@H]2O)[C@H](OC)[C@@H]1O (some centres undefined)	Active	Active	Active		Active						
CCCCCCCCNC(=O)NC[C@H]1O[C@@H](OC(C2C(=O)N(CCCCCCCC)C(=O)N2CCCNC(=O)[C@@H](NC(=O)[C@@H](NC(=O)N[C@H](C(=O)O)C(C)C)[C@@H]2CCN=C(N)N2)[C@@H](O)C(C)C)[C@H]2O[C@@H](n3ccc(=O)[nH]c3=O)[C@H](O)[C@@H]2O)[C@H](OC)[C@@H]1O (some centres undefined)	Active	Active	Active						Active		
CCCCCCNC(=O)NC[C@H]1O[C@@H](OC(C2C(=O)N(CCCCCC)C(=O)N2CCCNC(=O)[C@@H](NC(=O)[C@@H](NC(=O)N[C@H](C(=O)O)C(C)C)[C@@H]2CCN=C(N)N2)[C@@H](O)C(C)C)[C@H]2O[C@@H](n3ccc(=O)[nH]c3=O)[C@H](O)[C@@H]2O)[C@H](OC)[C@@H]1O (some centres undefined)	Active	Active	Active		Active						
CCCCCN1C(=O)C(C(O[C@@H]2O[C@H](CN)[C@@H](O)[C@H]2OC)[C@H]2O[C@@H](n3ccc(=O)[nH]c3=O)[C@H](O)[C@@H]2O)N(CCCNC(=O)[C@@H](NC(=O)[C@@H](NC(=O)N[C@H](C(=O)O)C(C)C)[C@@H]2CCN=C(N)N2)[C@@H](O)C(C)C)C1=O (some centres undefined)	inactive	inactive	Active	Active							
COc1ccc(NC(=O)NC[C@H]2O[C@@H](OC(C3C(=O)N(c4ccc(OC)cc4)C(=O)N3CCCNC(=O)[C@@H](NC(=O)[C@@H](NC(=O)N[C@H](C(=O)O)C(C)C)[C@@H]3CCN=C(N)N3)[C@@H](O)C(C)C)[C@H]3O[C@@H](n4ccc(=O)[nH]c4=O)[C@H](O)[C@@H]3O)[C@H](OC)[C@@H]2O)cc1 (some centres undefined)	Active	Active	Active		Active						
CO[C@H]1[C@H](OC([C@H]2O[C@@H](n3ccc(=O)[nH]c3=O)[C@H](O)[C@@H]2O)[C@@H](C(=O)O)N(CCCCCCCCCCCCN2CCOCC2)CCCNC(=O)[C@@H](NC(=O)[C@@H](NC(=O)N[C@H](C(=O)O)C(C)C)[C@@H]2CCN=C(N)N2)[C@@H](O)C(C)C)O[C@H](CN)[C@H]1O (some centres undefined)	inactive	inactive	Active	Active							
CCCCCNC[C@H]1O[C@@H](OC([C@H]2O[C@@H](n3ccc(=O)[nH]c3=O)[C@H](O)[C@@H]2O)[C@@H](C(=O)O)N(CCCCC)CCCNC(=O)[C@@H](NC(=O)[C@@H](NC(=O)N[C@H](C(=O)O)C(C)C)[C@@H]2CCN=C(N)N2)[C@@H](O)C(C)C)[C@H](OC)[C@@H]1O (some centres undefined)	inactive	inactive	inactive		inactive						
CO[C@H]1[C@H](OC([C@H](NCCCNC(=O)[C@@H](NC(=O)[C@@H](NC(=O)N[C@H](C(=O)O)C(C)C)[C@@H]2CCN=C(N)N2)[C@@H](O)C(C)C)C(=O)O)[C@H]2O[C@@H](n3ccc(=O)[nH]c3=O)[C@H](O)[C@@H]2O)O[C@H](CN)[C@H]1O (some centres undefined)				Active		Active	Active	Active			
CO[C@H]1[C@H](OC([C@H](NCCCNC(=O)[C@@H](NC(=O)[C@@H](NC(=O)N[C@H](C(=O)O)C(C)C)[C@@H]2CCN=C(N)N2)[C@@H](O)C(C)C)C(=O)O)[C@H]2O[C@@H](n3ccc(=O)[nH]c3=O)[C@H](O)[C@@H]2O)O[C@H](C/N=C(C)/C=C(/C)O)[C@H]1O (some centres undefined)	Active	Active	Active		Active						
CCCCCCCCCCCCN(CCCNC(=O)[C@@H](NC(=O)[C@@H](NC(=O)N[C@H](C(=O)O)C(C)C)[C@@H]1CCN=C(N)N1)[C@@H](O)C(C)C)[C@H](C(=O)O)C(O[C@@H]1O[C@H](CN)[C@@H](O)[C@H]1OC)[C@H]1O[C@@H](n2ccc(=O)[nH]c2=O)[C@H](O)[C@@H]1O (some centres undefined)		inactive		Active			Active			inactive	
CO[C@H]1[C@H](OC(C2C(=O)N(Cc3ccccc3)C(=O)N2CCCNC(=O)[C@@H](NC(=O)[C@@H](NC(=O)N[C@H](C(=O)O)C(C)C)[C@@H]2CCN=C(N)N2)[C@@H](O)C(C)C)[C@H]2O[C@@H](n3ccc(=O)[nH]c3=O)[C@H](O)[C@@H]2O)O[C@H](CN)[C@H]1O (some centres undefined)				Active		Active	Active	Active			
CO[C@H]1[C@H](OC(C2C(=O)N(c3ccc(F)cc3)C(=O)N2CCCNC(=O)[C@@H](NC(=O)[C@@H](NC(=O)N[C@H](C(=O)O)C(C)C)[C@@H]2CCN=C(N)N2)[C@@H](O)C(C)C)[C@H]2O[C@@H](n3ccc(=O)[nH]c3=O)[C@H](O)[C@@H]2O)O[C@H](CNC(=O)Nc2ccc(F)cc2)[C@H]1O (some centres undefined)	Active	Active	Active		Active						
CO[C@H]1[C@H](OC(C2C(=O)N(c3ccc(F)cc3)C(=O)N2CCCNC(=O)[C@@H](NC(=O)[C@@H](NC(=O)N[C@H](C(=O)O)C(C)C)[C@@H]2CCN=C(N)N2)[C@@H](O)C(C)C)[C@H]2O[C@@H](n3ccc(=O)[nH]c3=O)[C@H](O)[C@@H]2O)O[C@H](CN)[C@H]1O (some centres undefined)				Active		Active	Active				Active
